# In ChEMBL document CHEMBL5316282, “Small-Molecule Cyanamide Pan-TEAD·YAP1 Covalent Antagonists” (J Med Chem, 2023):
# The source made the active and inactive calls. No cut-off for these calls is given here.
# Key:
# [1] = biological target: Transcriptional coactivator YAP1/Transcriptional enhancer factor TEF-1 (Homo sapiens) (UniProt P46937+P28347); assay: Inhibition of NanoLuc-tagged TEAD1 (unknown origin)-Halo-Tagged YAP1 (unknown origin) protein-protein interaction transfected in HEK293 cells using furimazine as substrate at 10 uM incubated for 2 to 24 hrs by NanoBRET binding assay; assay type: cell-based; settings: time 2-24 hrs, TDE = time-dependent effect
# Sequence of Transcriptional coactivator YAP1/Transcriptional enhancer factor TEF-1 (Homo sapiens) (P28347 whole entry, looked up): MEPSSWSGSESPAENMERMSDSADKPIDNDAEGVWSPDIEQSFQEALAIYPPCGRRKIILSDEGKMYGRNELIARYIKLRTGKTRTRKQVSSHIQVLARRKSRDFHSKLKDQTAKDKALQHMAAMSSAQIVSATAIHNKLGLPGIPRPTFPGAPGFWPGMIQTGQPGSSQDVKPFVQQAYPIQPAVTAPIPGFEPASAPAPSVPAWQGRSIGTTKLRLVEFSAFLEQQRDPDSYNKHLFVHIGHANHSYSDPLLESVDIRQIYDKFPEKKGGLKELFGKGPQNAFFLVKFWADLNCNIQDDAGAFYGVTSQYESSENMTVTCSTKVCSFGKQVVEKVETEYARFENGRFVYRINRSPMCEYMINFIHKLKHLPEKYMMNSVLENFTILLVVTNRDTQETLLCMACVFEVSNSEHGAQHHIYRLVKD
# Sequence of Transcriptional coactivator YAP1/Transcriptional enhancer factor TEF-1 (Homo sapiens) (P46937 whole entry, looked up): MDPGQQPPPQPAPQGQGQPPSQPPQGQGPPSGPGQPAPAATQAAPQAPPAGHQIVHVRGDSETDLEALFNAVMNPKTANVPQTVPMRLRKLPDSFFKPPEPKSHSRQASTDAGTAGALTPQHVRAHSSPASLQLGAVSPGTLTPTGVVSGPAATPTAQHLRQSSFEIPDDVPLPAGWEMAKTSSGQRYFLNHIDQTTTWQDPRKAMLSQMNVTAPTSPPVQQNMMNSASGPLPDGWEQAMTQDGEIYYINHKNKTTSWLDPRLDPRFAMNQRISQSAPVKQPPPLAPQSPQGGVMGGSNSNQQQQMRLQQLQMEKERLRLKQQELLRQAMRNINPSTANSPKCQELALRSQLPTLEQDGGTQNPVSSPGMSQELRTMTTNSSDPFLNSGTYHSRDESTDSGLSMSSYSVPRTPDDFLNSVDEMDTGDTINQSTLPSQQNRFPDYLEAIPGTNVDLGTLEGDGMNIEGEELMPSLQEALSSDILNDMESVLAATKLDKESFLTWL
# [2] = Antiproliferative activity against human ST88-14 cells assessed as maximum inhibition of cell viability incubated for 3 days by MTS assay relative to control; assay type: functional; settings: time 3 day
# [3] = Antiproliferative activity against human ST88-14 cells assessed as reduction in cell viability incubated for 3 days by MTS assay; assay type: functional, cell-based; settings: ST88-14, 72 h
# [4] = Inhibition of TEAD in human MDA-MB-468 cells assessed as inhibition of CTGF transcriptional level incubated for 24 hrs by qRT-PCR assay; assay type: cell-based; settings: Homo sapiens, MDA-MB-468, 24 h; read-out: IC50
# [5] = biological target: T1, Transcriptional enhancer factor TEF-5 (Homo sapiens, UniProt Q99594); assay: Displacement of FAM- labeled YAP1 peptide (60 to 99 residues) from human TEAD3 (210 to 427 residues) expressed in Escherichia coli BL21 (DE3) cells incubated for 24 hrs by fluorescence polarization-based competitive binding assay
# T1 sequence (Q99594 whole entry, the tested form may be a part): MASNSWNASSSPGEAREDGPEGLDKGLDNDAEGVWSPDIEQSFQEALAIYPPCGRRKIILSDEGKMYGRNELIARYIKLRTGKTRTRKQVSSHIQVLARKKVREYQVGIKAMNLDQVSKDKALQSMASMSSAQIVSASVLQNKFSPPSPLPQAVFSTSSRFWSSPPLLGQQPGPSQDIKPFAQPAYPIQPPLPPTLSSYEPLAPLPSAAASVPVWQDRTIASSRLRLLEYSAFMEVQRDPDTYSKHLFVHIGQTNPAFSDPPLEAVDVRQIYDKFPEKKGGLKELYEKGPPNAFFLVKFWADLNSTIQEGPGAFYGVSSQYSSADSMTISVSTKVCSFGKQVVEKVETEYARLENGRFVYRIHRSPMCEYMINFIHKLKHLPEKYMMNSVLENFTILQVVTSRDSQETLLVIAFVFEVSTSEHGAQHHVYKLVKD
# [6] = system: Transcriptional enhancer factor TEF-3 (Homo sapiens), Q15561 [C367S]; assay: Displacement of FAM- labeled YAP1 peptide (60 to 99 residues) from human TEAD4 (217 to 434 residues) C367S mutant expressed in Escherichia coli BL21 (DE3) cells at 0.2 to 100 uM incubated for 24 hrs by fluorescence polarization-based competitive binding assay; settings: dose 0.2-100 µM
# Sequence of Transcriptional enhancer factor TEF-3 (Homo sapiens), Q15561 [C367S] (Q15561 whole entry C367S, the tested form may be a part): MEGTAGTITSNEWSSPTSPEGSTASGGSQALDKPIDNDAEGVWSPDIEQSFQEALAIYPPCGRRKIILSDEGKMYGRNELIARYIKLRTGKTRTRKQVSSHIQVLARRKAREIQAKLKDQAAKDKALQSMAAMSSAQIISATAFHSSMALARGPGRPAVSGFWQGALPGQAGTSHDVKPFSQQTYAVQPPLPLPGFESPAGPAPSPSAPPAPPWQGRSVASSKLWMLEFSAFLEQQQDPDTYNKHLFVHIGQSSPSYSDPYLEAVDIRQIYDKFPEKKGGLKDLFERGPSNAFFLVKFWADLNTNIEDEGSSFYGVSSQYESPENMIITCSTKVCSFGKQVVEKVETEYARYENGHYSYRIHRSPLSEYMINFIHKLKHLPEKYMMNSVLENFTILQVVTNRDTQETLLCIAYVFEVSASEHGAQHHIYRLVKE
# Huh-7 [7] = assay: Antiproliferative activity against human Huh-7 cells assessed as maximum inhibition of cell viability incubated for 3 days by MTS assay relative to control; assay type: functional; settings: time 3 day
# [8] = Antiproliferative activity against human 90-8 cells assessed as maximum inhibition of cell viability incubated for 3 days by MTS assay relative to control; assay type: functional; settings: time 3 day
# [9] = biological target: T2, Transcriptional enhancer factor TEF-4 (Homo sapiens, UniProt Q15562); assay: Displacement of FAM- labeled YAP1 peptide (60 to 99 residues) from human TEAD2 (217 to 447 residues) expressed in Escherichia coli BL21 (DE3) cells incubated for 24 hrs by fluorescence polarization-based competitive binding assay
# T2 sequence (Q15562 whole entry, the tested form may be a part): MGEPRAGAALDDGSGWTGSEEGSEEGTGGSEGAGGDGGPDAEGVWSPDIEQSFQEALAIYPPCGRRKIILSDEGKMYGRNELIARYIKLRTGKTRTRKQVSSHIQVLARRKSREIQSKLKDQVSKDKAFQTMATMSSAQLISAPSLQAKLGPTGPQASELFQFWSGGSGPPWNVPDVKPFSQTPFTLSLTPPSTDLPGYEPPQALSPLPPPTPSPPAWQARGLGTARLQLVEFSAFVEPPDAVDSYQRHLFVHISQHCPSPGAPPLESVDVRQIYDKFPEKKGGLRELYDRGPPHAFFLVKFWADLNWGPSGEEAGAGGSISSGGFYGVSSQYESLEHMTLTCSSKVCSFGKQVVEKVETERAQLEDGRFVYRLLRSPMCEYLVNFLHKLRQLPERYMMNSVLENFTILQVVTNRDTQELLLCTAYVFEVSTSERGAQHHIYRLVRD
# [10] = Antiproliferative activity against human SaOS-LM7 cells assessed as reduction in cell viability incubated for 3 days by MTS assay; assay type: functional, cell-based; settings: SaOS-LM7, 72 h
# [11] = biological target: T3, Transcriptional enhancer factor TEF-3 (Homo sapiens, UniProt Q15561); assay: Displacement of FAM- labeled YAP1 peptide (60 to 99 residues) from human TEAD4 (217 to 434 residues) expressed in Escherichia coli BL21 (DE3) cells at 100 uM incubated for 24 hrs followed by dialysis buffer for 24 hrs
# T3 sequence (Q15561 whole entry, the tested form may be a part): as the sequence (Q15561 whole entry C367S, the tested form may be a part) above, with S367C counted along it
# [12] = biological target: T3, Transcriptional enhancer factor TEF-3; assay: Inhibition of TEAD4 (unknown origin) transfected in human HEK293 cells co-transfected with renilla plasmid assessed as maximum inhibition of transcriptional activity at 0.1 to 10 uM incubated for 24 hrs by dual Glo-luciferase reporter assay relative to control; assay type: cell-based; settings: dose 0.1-10 µM
# [13] = biological target: T2, Transcriptional enhancer factor TEF-4; assay: Inhibition of TEAD2 (unknown origin) transfected in human HEK293 cells co-transfected with renilla plasmid assessed as maximum inhibition of transcriptional activity at 10 uM incubated for 24 hrs by dual Glo-luciferase reporter assay relative to control; assay type: cell-based
# SAOS-2 = assay: Antiproliferative activity against human SAOS-2 cells assessed as maximum inhibition of cell viability incubated for 3 days by MTS assay relative to control; assay type: functional; settings: time 3 day
# [14] = biological target: T3, Transcriptional enhancer factor TEF-3; assay: Inhibition of TEAD4 (unknown origin) transfected in human HEK293 cells co-transfected with renilla plasmid assessed as inhibition of transcriptional activity incubated for 24 hrs by dual Glo-luciferase reporter assay; assay type: cell-based; settings: read-out: IC50
# [15] = biological target: T4, YAP1-TEAD4 (Homo sapiens) (UniProt P46937+Q15561); assay: Inhibition of NanoLuc-tagged TEAD4 (unknown origin)-Halo-Tagged YAP1 (unknown origin) protein-protein interaction transfected in HEK293 cells using furimazine as substrate at 0.9 to 30 uM incubated for 24 hrs by NanoBRET binding assay; assay type: cell-based; settings: dose 0.9-30 µM
# [16] = Antiproliferative activity against human SaOS-LM7 cells assessed as maximum inhibition of cell viability incubated for 3 days by MTS assay relative to control; assay type: functional; settings: time 3 day
# MDA-MB-468 = assay: Inhibition of TEAD in human MDA-MB-468 cells assessed as maximal inhibition of CTGF transcriptional level at 0.01 to 100 uM incubated for 24 hrs by qRT-PCR assay relative to control; assay type: cell-based; settings: dose 0.01-100 µM
# [17] = biological target: T4, YAP1-TEAD4 (Homo sapiens); assay: Inhibition of NanoLuc-tagged TEAD4 (unknown origin)-Halo-Tagged YAP1 (unknown origin) protein-protein interaction transfected in HEK293 cells using furimazine as substrate at 10 uM incubated for 2 to 24 hrs by NanoBRET binding assay; assay type: cell-based; settings: time 2-24 hrs, TDE = time-dependent effect
# [18] = biological target: T2, Transcriptional enhancer factor TEF-4; assay: Inhibition of TEAD2 (unknown origin) transfected in human HEK293 cells co-transfected with renilla plasmid assessed as maximum inhibition of transcriptional activity at 0.1 to 10 uM incubated for 24 hrs by dual Glo-luciferase reporter assay relative to control; assay type: cell-based; settings: dose 0.1-10 µM
# Huh-7 [19] = assay: Antiproliferative activity against human Huh-7 cells assessed as reduction in cell viability incubated for 3 days by MTS assay; assay type: functional, cell-based; settings: Huh-7, 72 h
# [20] = biological target: T1, Transcriptional enhancer factor TEF-5; assay: Inhibition of TEAD3 (unknown origin) transfected in human HEK293 cells co-transfected with renilla plasmid assessed as inhibition of transcriptional activity incubated for 24 hrs by dual Glo-luciferase reporter assay; assay type: cell-based
# [21] = biological target: T3, Transcriptional enhancer factor TEF-3; assay: Displacement of FAM- labeled YAP1 peptide (60 to 99 residues) from human TEAD4 (217 to 434 residues) expressed in Escherichia coli BL21 (DE3) cells incubated for 24 hrs by fluorescence polarization-based competitive binding assay; settings: read-out: IC50
# [22] = biological target: T5, Transcriptional enhancer factor TEF-1 (Homo sapiens, UniProt P28347); assay: Inhibition of TEAD1 (unknown origin) transfected in human HEK293 cells co-transfected with renilla plasmid assessed as maximum inhibition of transcriptional activity at 0.1 to 10 uM incubated for 24 hrs by dual Glo-luciferase reporter assay relative to control; assay type: cell-based; settings: dose 0.1-10 µM
# T5 sequence (P28347 whole entry): as the sequence (P28347 whole entry, looked up) above
# [23] = biological target: T4, YAP1-TEAD4 (Homo sapiens); assay: Inhibition of NanoLuc-tagged TEAD4 (unknown origin)-Halo-Tagged YAP1 (unknown origin) protein-protein interaction transfected in HEK293 cells using furimazine as substrate at 1.1 to 30 uM incubated for 24 hrs by NanoBRET binding assay; assay type: cell-based; settings: dose 1.1-30 µM
# [24] = biological target: T5, Transcriptional enhancer factor TEF-1; assay: Inhibition of TEAD1 (unknown origin) transfected in human HEK293 cells co-transfected with renilla plasmid assessed as inhibition of transcriptional activity incubated for 24 hrs by dual Glo-luciferase reporter assay; assay type: cell-based
# [25] = biological target: T5, Transcriptional enhancer factor TEF-1; assay: Inhibition of TEAD1 (unknown origin) transfected in human HEK293 cells co-transfected with renilla plasmid assessed as maximum inhibition of transcriptional activity at 10 uM incubated for 24 hrs by dual Glo-luciferase reporter assay relative to control; assay type: cell-based
smiles,measurement,setting,value
N#CN1Cc2cccc(Nc3cccc(C(F)(F)F)c3)c2C1,inhibition,[1],Tde
same,Imax,[2],31%
same,IC50,[3],0.03 µM
same,IC50,[4],0.6 µM
same,IC50,[5],Not Active
same,inhibition,[6],inactive
same,Imax,Huh-7 [7],48.3%
same,Imax,[8],51.4%
same,IC50,[9],1.2 µM
same,IC50,[10],0.2 µM
same,inhibition,[11],Active
same,Imax,[12],61.8%
same,inhibition,[13],40%
same,Imax,SAOS-2,53.4%
same,IC50,[14],5 µM
same,inhibition,[15],Active
same,Imax,[16],60.7%
same,Imax,MDA-MB-468,65.7%
same,inhibition,[17],Tde
same,Imax,[18],42.7%
same,IC50,Huh-7 [19],0.1 µM
same,IC50,[20],2.2 µM
same,IC50,[21],1.1 µM
same,Imax,[22],51.2%
same,inhibition,[23],Active
same,IC50,[24],5.1 µM
same,inhibition,[25],40%
